From patent US20170027949A1, “ASSOCIATION BETWEEN 8-CYCLOPROPYL-3-[2-(3-FLUOROPHENYL)ETHYL]-7,8-DIHYDRO-3H-[1,3]OXAZINO[6,5-g][1,2,3]BENZOTRIAZINE-4,9-DIONE AND AN ACETYLCHOLINESTERASE INHIBITOR, AND PHARMACEUTICAL COMPOSITIONS CONTAINING IT” (priority 2014, published 2017)

Columns and labels:
3-month-old C57BL/6 mice = test: Excitatory post-synaptic potentials (EPSP) induced by electrical stimulation in alert mice (perforant pathway / dentate gyrus of the hippocampus); assay type: in vivo; conditions: single dose p.o.: Compound S 3 mg/kg, rivastigmine 0.03 mg/kg, alone or in association
From the text: Studying EPSPs induced by electrical stimulation in alert mice makes it possible to study physiologically an electrophysiological phenomenon which is the basis of neuronal activity and connected to the processes of memorisation and learning.
3-month-old C57BL/6 mice are anaesthetised with 0.8-3% halothane delivered by means of a mask. Once anaesthetised, stimulation and recording electrodes are inserted, respectively, in the perforant pathway and the dentate gyrus of the hippocampus of the animals. Following implantation of the electrodes, the mice are kept in cages for from 5 to 7 days with free access to food and water in order to allow complete recovery. Each implanted animal is alone in a cage until the end of the experiment.
After recovery, a stable baseline of evoked responses is induced using paired pulses (pulse duration 100 μs, negative-positive) administered at 3 pulses/minute to the stimulation electrode situated in the perforant pathway. The intervals between pulses are fixed at 40 ms (Gruart et al., J. Neurosci. 2006, 24, 1077-1087). The field EPSPs are monitored until a stable baseline is obtained (for 30 minutes). The products or the carrier are then administered, and the evoked field potentials are recorded. […] The evoked potentials are then recorded for approximately 2.5 hours after the last administration of compound or carrier.

[1] = test system: C57BL/6 mice having an average age of 14-15 months; test: Contextual serial discrimination test (model of episodic memory); assay type: in vivo; conditions: for percentage of correct responses: chronic treatment for 9 days, middle-aged mice, carrier 26.4%
From the text: The effects of 8-cyclopropyl-3-[2-(3-fluorophenyl)ethyl]-7,8-dihydro-3H-[1,3]oxazino-[6,5-g][1,2,3]benzotriazine-4,9-dione and of donepezil (the latter used in the form of a hydrochloride), administered on their own or in combination, were studied using a contextual serial discrimination test in C57BL/6 mice having an average age of 14-15 months (n=12 per group) (Célérier et al., Learn Mem. 2004, 11(2), 196-204; Tronche et al., Behav. Brain Res. 2010, 215(2), 255-260).
The mice, placed in a high-sided box, learn two types of consecutive spatial discriminations (D1: white floor then D2: black floor) on a floor having four holes, in which only one of the holes is baited, opposite holes being baited in D1 and D2. Each discrimination is performed on a specific floor (white or black), which constitutes the internal context specific to each discrimination. Twenty-four hours after the learning step, the mice are returned to the white contextual floor and the following parameters are measured: • the percentage of correct responses (i.e. % of head dips in the hole that had been baited during the acquisition exercise on the white floor), • the percentage of interfering responses (i.e. % of head dips in the hole that had been baited during the acquisition exercise on the black floor, the last context presented to the mice), • and the percentage of errors (i.e. % of head dips in the two holes that had not been baited during the acquisition, either on the white floor or on the black floor) (see FIG. 1).

C57BL/6 mice = test: Irwin's primary observation test; conditions: on its own
Protocol: The effects in terms of safety of 8-cyclopropyl-3-[2-(3-fluorophenyl)ethyl]-7,8-dihydro-3H-[1,3]oxazino[6,5-g][1,2,3]benzotriazine-4,9-dione and of donepezil (the latter in the form of a hydrochloride), administered on their own or in association, were studied using Irwin's primary observation test in C57BL/6 mice (n=4 individuals per group). Behavioural changes, physiological and neurotoxic symptoms, rectal temperature and also pupil diameter were recorded using a standardised observation grid derived from that of Irwin.

| SMILES | amplitudes of the field EPSPs relative to the carrier group (3-month-old C57BL/6 mice) | percentage of correct responses ([1]; 0.1 mg/kg per os) | percentage of correct responses ([1]; 0.3 mg/kg per os) | increase in level of correct responses relative to the carrier ([1]; doses of 0.1 and 0.3 mg/kg per os, 9 days, significant) | change in percentage of correct responses relative to the carrier ([1]; 0.1 mg/kg of base per os, 9 days) | change according to the standardised observation grid (C57BL/6 mice; 0.3 and 1 mg/kg of base per os, acute) | change according to the standardised observation grid (C57BL/6 mice; 3 and 10 mg/kg of base per os) |
| --- | --- | --- | --- | --- | --- | --- | --- |
| CCN(C)C(=O)Oc1cccc([C@H](C)N(C)C)c1 [rivastigmine] | does not induce a significant modification |  |  |  |  |  |  |
| O=C1c2cc3nnn(CCc4cccc(F)c4)c(=O)c3cc2OCN1C1CC1 [Compound S, 8-cyclopropyl-3-[2-(3-fluorophenyl)ethyl]-7,8-dihydro-3H-[1,3]oxazino[6,5-g][1,2,3]benzotriazine-4,9-dione] | does not induce a significant modification | 43.7% | 48% | more than 40% |  |  |  |
| COc1cc2c(cc1OC)C(=O)C(CC1CCN(Cc3ccccc3)CC1)C2 (stereo not drawn) [donepezil] |  | 35.5% |  |  | slight non-significant increase | do not induce any change | induces shaking, slight to moderate sedation, a loss of muscle tone and a decrease in reactivity to touch |
